Experimental data as given in patent US10206394B2, “Herbicidal compounds” (Syngenta Participations AG, priority 2014, dated 2019).
Where two headings read alike, the source gives them in different places.

How the values were obtained:
Assay in all cases: Glasshouse assay for herbicidal activity (pre- and post-emergence), percentage phytotoxicity
Assay type in all cases: in vivo
[1] = system: Avena fatua (AVEFA); conditions: Avena fatua
Method: (§1) Test—Glasshouse Assay for Herbicidal Activity
(§2) Seeds of a variety of monocotyledonous and dicotyledonous test plants are sown in standard soil in pots. The plants are cultivated for one day (for pre-emergence (PRE)) or for about 12 days (for post-emergence (POST)) under controlled conditions in a glasshouse (warm climate species at 24/18° C., cool climate species at 20/16° C., both at day/night; 16 hours light; 65% humidity).
(§3) The test plants are then grown on, in a glasshouse (greenhouse) under controlled conditions (warm climate species at 24/18° C., cool climate species at 20/16° C., both at day/night; 16 hours light; 65% humidity) and are watered twice daily. 15 days after application of the test herbicide (15 DAA) (for post-emergence), and 20 days after application of the test herbicide (20 DAA) (for pre-emergence), the test plants are evaluated visually, and an assessed percentage phytotoxicity score is given for each herbicidal application on each plant species (with 100%=total damage to plant; 0%=no damage to plant).
(§4) The plant species tested are as follows: Alopecurus myosuroides (ALOMY), Avena fatua (AVEFA), Lolium perenne (LOLPE), Echinochloa crus-galli (ECHCG).

[2] = system: Lolium perenne (LOLPE); conditions: Lolium perenne
Method: as §1, §2, §3, §4

[3] = system: Echinochloa crus-galli (ECHCG); conditions: Echinochloa crus-galli
Method: as §1, §2, §3, §4

[4] = system: Alopecurus myosuroides (ALOMY); conditions: Alopecurus myosuroides
Method: as §1, §2, §3, §4

[5] = post-emergence, 360 h, Rate 250 g/ha, post-emergence, assessed visually 15 DAA, 100%=total damage, 0%=no damage, read-out: Post-emergence herbicidal activity (percentage phytotoxicity) AVEFA POST
[6] = pre-emergence, 480 h, Rate 250 g/ha, pre-emergence, assessed visually 20 DAA, 100%=total damage, 0%=no damage, read-out: Pre-emergence herbicidal activity (percentage phytotoxicity) AVEFA PRE
[7] = post-emergence, 360 h, Rate 250 g/ha, post-emergence, assessed visually 15 DAA, 100%=total damage, 0%=no damage, read-out: Post-emergence herbicidal activity (percentage phytotoxicity) LOLPE POST
[8] = pre-emergence, 480 h, Rate 250 g/ha, pre-emergence, assessed visually 20 DAA, 100%=total damage, 0%=no damage, read-out: Pre-emergence herbicidal activity (percentage phytotoxicity) LOLPE PRE
[9] = post-emergence, 360 h, Rate 250 g/ha, post-emergence, assessed visually 15 DAA, 100%=total damage, 0%=no damage, read-out: Post-emergence herbicidal activity (percentage phytotoxicity) ECHCG POST
[10] = pre-emergence, 480 h, Rate 250 g/ha, pre-emergence, assessed visually 20 DAA, 100%=total damage, 0%=no damage, read-out: Pre-emergence herbicidal activity (percentage phytotoxicity) ECHCG PRE
[11] = post-emergence, 360 h, Rate 250 g/ha, post-emergence, assessed visually 15 DAA, 100%=total damage, 0%=no damage, read-out: Post-emergence herbicidal activity (percentage phytotoxicity) ALOMY POST
[12] = pre-emergence, 480 h, Rate 250 g/ha, pre-emergence, assessed visually 20 DAA, 100%=total damage, 0%=no damage, read-out: Pre-emergence herbicidal activity (percentage phytotoxicity) ALOMY PRE

SMILES	pest or weed control at 250 g/ha [1, 5]	pest or weed control at 250 g/ha [1, 6]	pest or weed control at 250 g/ha [2, 7]	pest or weed control at 250 g/ha [2, 8]	pest or weed control at 250 g/ha [3, 9]	pest or weed control at 250 g/ha [3, 10]	pest or weed control at 250 g/ha [4, 11]	pest or weed control at 250 g/ha [4, 12]	other results
Cc1cc(-c2ncc(Cl)cn2)cc(C)c1C1C(=O)CC(CC(=O)NC(C)C)C1=O (stereo not shown) [Compound B340]									pest or weed control at 250 g/ha ([1]; post-emergence, 360 h, Rate 250 g/ha, post-emergence, visual assessment 15 DAA, 100%=total damage, 0%=no damage, read-out: Post-emergence herbicidal activity (percentage phytotoxicity) AVEFA POST): 100%; pest or weed control at 250 g/ha ([1]; pre-emergence, 480 h, Rate 250 g/ha, pre-emergence, visual assessment 20 DAA, 100%=total damage, 0%=no damage, read-out: Pre-emergence herbicidal activity (percentage phytotoxicity) AVEFA PRE): 100%; pest or weed control at 250 g/ha ([2]; post-emergence, 360 h, Rate 250 g/ha, post-emergence, visual assessment 15 DAA, 100%=total damage, 0%=no damage, read-out: Post-emergence herbicidal activity (percentage phytotoxicity) LOLPE POST): 100%; pest or weed control at 250 g/ha ([2]; pre-emergence, 480 h, Rate 250 g/ha, pre-emergence, visual assessment 20 DAA, 100%=total damage, 0%=no damage, read-out: Pre-emergence herbicidal activity (percentage phytotoxicity) LOLPE PRE): 100%; pest or weed control at 250 g/ha ([3]; post-emergence, 360 h, Rate 250 g/ha, post-emergence, visual assessment 15 DAA, 100%=total damage, 0%=no damage, read-out: Post-emergence herbicidal activity (percentage phytotoxicity) ECHCG POST): 100%; pest or weed control at 250 g/ha ([3]; pre-emergence, 480 h, Rate 250 g/ha, pre-emergence, visual assessment 20 DAA, 100%=total damage, 0%=no damage, read-out: Pre-emergence herbicidal activity (percentage phytotoxicity) ECHCG PRE): 100%; pest or weed control at 250 g/ha ([4]; post-emergence, 360 h, Rate 250 g/ha, post-emergence, visual assessment 15 DAA, 100%=total damage, 0%=no damage, read-out: Post-emergence herbicidal activity (percentage phytotoxicity) ALOMY POST): 100%; pest or weed control at 250 g/ha ([4]; pre-emergence, 480 h, Rate 250 g/ha, pre-emergence, visual assessment 20 DAA, 100%=total damage, 0%=no damage, read-out: Pre-emergence herbicidal activity (percentage phytotoxicity) ALOMY PRE): 100%
COc1ccccc1CNC(=O)CC1CC(=O)C(c2c(C)cc(C)cc2C)C1=O (stereo not shown) [Compound A90]	0%	0%	70%	60%	80%	40%	0%	0%	
Cc1cc(-c2ncc(F)cn2)cc(C)c1C1C(=O)CC(CC(=O)N2CCOCC2)C1=O (stereo not shown) [Compound B276]									pest or weed control at 250 g/ha ([1]; post-emergence, 360 h, POST-emergence, rate 250 g/ha, visual score 15 DAA (100%=total damage, 0%=no damage), read-out: Post-emergence herbicidal activity (percentage phytotoxicity) AVEFA POST): 90%; pest or weed control at 250 g/ha ([1]; pre-emergence, 480 h, PRE-emergence, rate 250 g/ha, visual score 20 DAA (100%=total damage, 0%=no damage), read-out: Pre-emergence herbicidal activity (percentage phytotoxicity) AVEFA PRE): 80%; pest or weed control at 250 g/ha ([2]; post-emergence, 360 h, POST-emergence, rate 250 g/ha, visual score 15 DAA (100%=total damage, 0%=no damage), read-out: Post-emergence herbicidal activity (percentage phytotoxicity) LOLPE POST): 100%; pest or weed control at 250 g/ha ([2]; pre-emergence, 480 h, PRE-emergence, rate 250 g/ha, visual score 20 DAA (100%=total damage, 0%=no damage), read-out: Pre-emergence herbicidal activity (percentage phytotoxicity) LOLPE PRE): 90%; pest or weed control at 250 g/ha ([3]; post-emergence, 360 h, POST-emergence, rate 250 g/ha, visual score 15 DAA (100%=total damage, 0%=no damage), read-out: Post-emergence herbicidal activity (percentage phytotoxicity) ECHCG POST): 100%; pest or weed control at 250 g/ha ([3]; pre-emergence, 480 h, PRE-emergence, rate 250 g/ha, visual score 20 DAA (100%=total damage, 0%=no damage), read-out: Pre-emergence herbicidal activity (percentage phytotoxicity) ECHCG PRE): 100%; pest or weed control at 250 g/ha ([4]; post-emergence, 360 h, POST-emergence, rate 250 g/ha, visual score 15 DAA (100%=total damage, 0%=no damage), read-out: Post-emergence herbicidal activity (percentage phytotoxicity) ALOMY POST): 90%; pest or weed control at 250 g/ha ([4]; pre-emergence, 480 h, PRE-emergence, rate 250 g/ha, visual score 20 DAA (100%=total damage, 0%=no damage), read-out: Pre-emergence herbicidal activity (percentage phytotoxicity) ALOMY PRE): 100%
Cc1cc(C)c(C2C(=O)CC(CC(=O)NCCC#N)C2=O)c(C)c1 (stereo not shown) [Compound A86]	40%	0%	50%	10%	80%	20%	30%	0%	
Cc1cc(C)c(C2C(=O)CC(CC(=O)NCc3ccccc3F)C2=O)c(C)c1 (stereo not shown) [Compound A110]	70%	50%	80%	100%	80%	90%	60%	70%	
